Laboratory results as given in PMC6930638, “The Masked Polar Group Incorporation (MPGI) Strategy in Drug Design: Effects of Nitrogen Substitutions on Combretastatin and Isocombretastatin Tubulin Inhibitors” (Molecules, 2019).
Where two headings read alike, the source gives them in different places.

Columns and labels:
[1] = test system: HeLa cervix epithelioid carcinoma; assay: MTT cell antiproliferative assay, HeLa; assay type: cell-based; conditions: Homo sapiens, 72 h
Protocol: (§1) The in vitro antiproliferative activity of the synthesized compounds was evaluated by a colorimetric reaction, using the MTT reagent. They were tested against three different human tumor cell lines: HeLa cervix epithelioid carcinoma, HT-29 colon adenocarcinoma, and MCF-7 breast adenocarcinoma. […] Moving the alkylamino substituent from a para to a meta position with respect to the bridge results in potency reduction, except for the phenstatin analogue 1f. However, the introduction of a nitrogen atom to form 2-dimethylaminopyridine derivatives entails a loss of activity, both for phenstatin analogues (1b, 2b), while for isocombretastatins, it only involves a 2–3 times potency decrease (3b). For combretastatins, it implies an improvement in the cytotoxicity values down to tenths of nanomolar (8b). […] On the other hand, the best 2-dimethylaminopyridine was combretastatin 8b. All ammonium salts derivatives were not cytotoxic at micromolar concentrations.
(§2) HeLa (human cervical carcinoma) and MCF-7 (human breast carcinoma) cell lines were cultured in Dulbecco’s Modified Eagles Medium (DMEM) supplemented with 2 mM L-glutamine (Lonza-Cambrex, Karlskoga, Sweden), 10% (v/v) heat inactivated fetal bovine serum (HIFBS) (Lonza-Cambrex) and 100 μg/mL streptomycin-100 IU/mL penicillin (Lonza-Cambrex) at 37 °C in humidified 95% air and 5% CO2. HT-29 (human colon carcinoma) cells were cultured at 37 °C in complete RPMI 1640 medium containing 2 mM L-glutamine, 10% (v/v) HIFBS and 100 μg/mL streptomycin-100 IU/mL penicillin in humidified 95% air and 5% CO2 atmosphere.
(§3) The effect of the different compounds on the proliferation of human cell lines was determined by using the MTT (3-[4,5-dimethylthiazol-2-yl]-2,5-diphenyltetrazolium bromide) reagent (MTT Thiazolyl Blue Tetrazolium Bromide, Sigma-Aldrich, St. Louis, MO, USA) dissolved in PBS 5 mg/mL. Cell viability was evaluated seeding 100 µL of cells in exponential growth phase with appropriate cell line concentration (1.5 × 10^4 HeLa and MCF-7 cells/mL and 3 × 10^4 HT-29 cells/mL) in complete medium in 96-well plates at 37 °C and 5% CO2. After 24 h incubation to allow cells to attach to the plates the ligands were added at different concentrations from 10^−5 to 10^−9 M. The effect on the proliferation was evaluated 72 h post-treatment by adding the MTT reagent (10 µL/well) to a final concentration of 0.5 mg/mL and the plate was further incubated for another 3 h. After this period, the supernatant was removed, the MTT violet crystals formed on the bottom of each well were dissolved in DMSO (100 µL/well) and subsequently, the absorbance of the color complex was read at 570 nm using a multi-well plate reader. Compounds were dissolved in dimethyl sulfoxide (DMSO) and the final solvent concentrations never exceeded 0.5% (v/v). The control wells included treated cells with 0.5% (v/v) DMSO and the positive control. Measurements were performed in triplicate, and each experiment was repeated three times. […] Nonlinear curves fitting the experimental data were carried out for each compound.

[2] = test system: Bovine brain microtubule protein (MTP); assay: Tubulin polymerization inhibition assay (turbidimetry); assay type: biochemical; conditions: 1.5 mg/mL MTP; IC50 calculated only if more than 50% inhibition at 20 µM; read-out: TPI IC50
Protocol: Bovine brain microtubule protein (MTP) was isolated as previously described. Briefly, it was purified according to the modified Shelanski method by two cycles of temperature-dependent assembly/disassembly.
Tubulin polymerization was monitored using a Helios α spectrophotometer by measuring the increase in turbidity at 450 nm, caused by a shift from 4 °C to 37 °C, which allows the in vitro MTP self-disassembly and assembly respectively. […] Firstly, ligands at 20 µM concentration, were incubated with 1.5 mg/mL MTP at 20 °C for 30 min and subsequently cooled on ice for 10 min. Then, the experiment starts at 4 °C to establish the initial baseline. The assembly process was initiated by shifting of the temperature to 37 °C and the turbidity produced can be measured by an absorbance increase. After reaching a stable plateau, the temperature was switched back to 4 °C to return to the initial absorption values. The difference in amplitude between the stable plateau and the initial baseline of the curves was taken as the degree of tubulin polymerization for each experiment. […] All the measurements were carried out in at least two independent experiments using MTP from different isolation.

[3] = test system: MCF-7 breast adenocarcinoma; assay: MTT cell antiproliferative assay, MCF-7; assay type: cell-based; conditions: Homo sapiens, MCF7, 72 h
Protocol: as §1, §2, §3

[4] = test system: HeLa, HT-29 and MCF-7 human tumor cell lines; assay: Antiproliferative activity over the three human tumor cell lines (MTT); assay type: cell-based; conditions: range over the cell lines, Table S1, read-out: Cytotoxicity range (range of antiproliferative IC50 values)
Protocol: as §1
The antiproliferative activity of the compounds against three human tumor cell lines of different origins (i.e., HeLa cervix epithelioid carcinoma, HT-29 colon adenocarcinoma and MCF-7 breast adenocarcinoma) was evaluated by the MTT method. […] This high success rate is the result of a combination of favorable scaffolds and substituents, and it is similar to those of previous reports on related series. […] We have previously observed the same trend for related compounds acting at the colchicine site of tubulin [10, 23]. For this pyridine series, we observed a different potency trend when we compare the 4-amino-3-pyridine and the 3-amino-4-pyridine derivatives. […] This different behavior is probably a reflection of their different shape, combined with the different geometries imposed by different bridges. We have previously shown that the potency ordering isocombretastatins similar to oximes higher than benzophenones could be explained by the higher conjugation of the ketones with the aromatic rings, which imposes a more planar disposition than those required for high affinity colchicine site binding. For the 3-amino-4-pyridine series, more planar structures are required in order to avoid the bumping of the amino substituents with tubulin out the plane of the aromatic ring, an effect which we have previously shown to impact the potency of 3-substituted indolecombretastatins and dimethylaminophenyl phenstatins. This different geometrical disposition of the amino substituents, and the different adaptability of their corresponding pockets in the two series, can also account for the preference of bulkier substituents at position 3, such as the pyrrolidine rather than the smaller dimethylamino. […] The opposite is observed for the 4-dimethylaminophenyl phenstatins 1a and 1b. […] The remarkable levels of solubility achieved for the quaternary ammonium salts came unfortunately at the expenses of biological activity.
The effect of the different compounds on the proliferation of human cell lines was determined by using the MTT (3-[4,5-dimethylthiazol-2-yl]-2,5-diphenyltetrazolium bromide) reagent (MTT Thiazolyl Blue Tetrazolium Bromide, Sigma-Aldrich, St. Louis, MO, USA) dissolved in PBS 5 mg/mL. Cell viability was evaluated seeding 100 µL of cells in exponential growth phase with appropriate cell line concentration (1.5 × 10^4 HeLa and MCF-7 cells/mL and 3 × 10^4 HT-29 cells/mL) in complete medium in 96-well plates at 37 °C and 5% CO2. After 24 h incubation to allow cells to attach to the plates the ligands were added at different concentrations from 10^−5 to 10^−9 M. The effect on the proliferation was evaluated 72 h post-treatment by adding the MTT reagent (10 µL/well) to a final concentration of 0.5 mg/mL and the plate was further incubated for another 3 h. […]

SMILES	IC50 [1]	IC50 [2]	IC50 [3]	IC50 ([4]; Homo sapiens)	IC50 [4]	IC50 ([4]; heading: Cytotoxicity range)
COc1ccc(OC)c(C(=O)c2ccc(N(C)C)cc2)c1 [Compound 1e, (2,5-dimethoxyphenyl)(4-(dimethylamino)phenyl)methanone]	> 1000 nM	> 20000 nM	> 1000 nM	> 1000 nM	–	–
COc1cc(C(=NO)c2ccc(N3CCCC3)nc2)cc(OC)c1OC [Compound 2c, (6-(Pyrrolidin-1-yl)pyridin-3-yl)(3,4,5-trimethoxyphenyl)methanone oxime]	> 1000 nM	> 20000 nM	> 1000 nM	–	–	–
COc1ccc(OC)c(C(=NO)c2ccc(N(C)C)cc2)c1 [Compound 2e, (2,5-Dimethoxyphenyl)(4-(dimethylamino)phenyl)methanone oxime]	> 1000 nM	> 20000 nM	> 1000 nM	–	–	–
C=C(c1ccc(N(C)C)cc1)c1cc(OC)ccc1OC [Compound 3e, 4-(1-(2,5-Dimethoxyphenyl)vinyl)-N,N-dimethylaniline]	> 1000 nM	> 20000 nM	> 1000 nM	> 1000 nM	–	–
COc1ccc(C(C)c2ccc(N(C)C)cc2)c(OC)c1OC (stereo not drawn) [Compound 4d, N,N-Dimethyl-4-(1-(2,3,4-trimethoxyphenyl)ethyl)aniline]	> 1000 nM	> 20000 nM	> 1000 nM	> 1000 nM	–	–
COc1ccc(OC)c(C(C)c2ccc(N(C)C)cc2)c1 (stereo not drawn) [Compound 4e, 4-(1-(2,5-Dimethoxyphenyl)ethyl)-N,N-dimethylaniline]	> 1000 nM	> 20000 nM	> 1000 nM	> 1000 nM	–	–
COc1cc(C(C)c2cccc(N(C)C)c2)cc(OC)c1OC (stereo not drawn) [Compound 4f, N,N-Dimethyl-3-(1-(3,4,5-trimethoxyphenyl)ethyl)aniline]	> 1000 nM	> 20000 nM	> 1000 nM	> 1000 nM	–	–
COc1cc(C(=O)c2ccc([N+](C)(C)C)cc2)cc(OC)c1OC [Compound 5a, N,N,N-Trimethyl-4-(3,4,5-trimethoxybenzoyl)benzenaminiumiodide]	> 1000 nM	> 20000 nM	> 1000 nM	> 1000 nM	–	–
COc1cc(C=Cc2ccc(N3CCCC3)nc2)cc(OC)c1OC [Compound 8c, 2-(Pyrrolidin-1-yl)-5-(3,4,5-trimethoxystyryl)pyridine]	> 1000 nM	> 20000 nM	> 1000 nM	> 1000 nM	–	–
COc1cc(C=Cc2ccc([N+](C)(C)C)cc2)cc(OC)c1OC [Compound 9a, N,N,N-trimethyl-4-(3,4,5-trimethoxystyryl)benzenaminium iodide]	> 1000 nM	> 20000 nM	> 1000 nM	> 1000 nM	–	–
COc1cc(C=Cc2ccc([N+]3(C)CCCC3)cc2)cc(OC)c1OC [Compound 9i, 1-Methyl-1-(4-(3,4,5-trimethoxystyryl)phenyl)pyrrolidin-1-ium iodide]	> 1000 nM	–	> 1000 nM	–	–	–
COc1cc(C(=NO)c2ccc(N3CCCC3)nc2)cc(OC)c1OC [Compound E-2c, (6-(Pyrrolidin-1-yl)pyridin-3-yl)(3,4,5-trimethoxyphenyl)methanone oxime]	–	–	–	–	> 1000 nM	–
COc1ccc(C(=NO)c2ccc(N(C)C)cc2)c(OC)c1OC [Compound E-2d, (4-(Dimethylamino)phenyl)(2,3,4-trimethoxyphenyl)methanone oxime]	–	–	–	277 to 677 nM	–	–
COc1ccc(OC)c(C(=NO)c2ccc(N(C)C)cc2)c1 [Compound E-2e, (2,5-Dimethoxyphenyl)(4-(dimethylamino)phenyl)methanone oxime]	–	–	–	> 1000 nM	–	–
COc1cc(C(=NO)c2cccc(N(C)C)c2)cc(OC)c1OC [Compound E-2f, (3-(Dimethylamino)phenyl)(3,4,5-trimethoxyphenyl)methanone oxime]	–	–	–	> 1000 nM	–	–
COc1cc(C(=NO)c2ccnc(N(C)C)c2)cc(OC)c1OC [Compound E-2g, (2-(Dimethylamino)pyridin-4-yl)(3,4,5-trimethoxyphenyl)methanone oxime]	–	–	–	407 to 3330 nM	–	–
COc1cc(C(=NO)c2ccc([N+](C)(C)C)cc2)cc(OC)c1OC [Compound E-6a, 4-((Hydroxyimino)(3,4,5-trimethoxyphenyl)methyl)-N,N,N-trimethylbenzenaminium iodide]	–	–	–	> 1000 nM	–	–
COc1cc(C(=NO)c2ccc(N3CCCC3)nc2)cc(OC)c1OC [Compound Z-2c, (6-(Pyrrolidin-1-yl)pyridin-3-yl)(3,4,5-trimethoxyphenyl)methanone oxime]	–	–	–	–	–	> 1000 nM
COc1ccc(OC)c(C(=NO)c2ccc(N(C)C)cc2)c1 [Compound Z-2e, (2,5-Dimethoxyphenyl)(4-(dimethylamino)phenyl)methanone oxime]	–	–	–	–	> 1000 nM	–
COc1cc(C(=NO)c2cccc(N(C)C)c2)cc(OC)c1OC [Compound Z-2f, (3-(Dimethylamino)phenyl)(3,4,5-trimethoxyphenyl)methanone oxime]	–	–	–	–	> 1000 nM	–
COc1cc(C(=NO)c2ccnc(N(C)C)c2)cc(OC)c1OC [Compound Z-2g, (2-(Dimethylamino)pyridin-4-yl)(3,4,5-trimethoxyphenyl)methanone oxime]	–	–	–	–	407 to 3330 nM	–
COc1cc(C(=NO)c2ccc([N+](C)(C)C)cc2)cc(OC)c1OC [Compound Z-6a, 4-((Hydroxyimino)(3,4,5-trimethoxyphenyl)methyl)-N,N,N-trimethylbenzenaminium iodide]	–	–	–	–	> 1000 nM	–
